From PubChem BioAssay (NCI)
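48-hour exposure; five concentrations; linearly interpolated endpoints. GI50 = concentration required for 50% inhibition of growth. At the TGI there is no net growth.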

How the values were obtained:
Test in all cases: NCI tumour cell line growth inhibition, 48 h
[1] = test system: HCC-2998 colon
[2] = test system: SK-MEL-28 melanoma
[3] = test system: OVCAR-8 ovarian
[4] = test system: A549 NSCLC
[5] = test system: OVCAR-3 ovarian
[6] = test system: SK-MEL-5 melanoma
[7] = test system: HL-60(TB) leukemia
[8] = test system: RXF 393 renal
[9] = test system: SW-620 colon
[10] = test system: UO-31 renal
[11] = test system: COLO 205 colon
[12] = test system: A498 renal
[13] = test system: KM12 colon
[14] = test system: MOLT-4 leukemia
[15] = test system: HCT-15 colon
[16] = test system: NCI-H226 lung
[17] = test system: NCI-H522 lung
[18] = test system: K-562 leukemia
[19] = test system: UACC-62 melanoma
[20] = test system: TK-10 renal
[21] = test system: MDA-MB-435
[22] = test system: U251 CNS
[23] = test system: SF-268 CNS
[24] = test system: SR leukemia
[25] = test system: BT-549 breast
[26] = test system: UACC-257 melanoma
[27] = test system: SF-539 CNS
[28] = test system: SNB-19 CNS
[29] = test system: LOX IMVI melanoma
[30] = test system: NCI-H23 lung
[31] = test system: SNB-75 CNS
[32] = test system: MALME-3M melanoma
[33] = test system: HT29 colon
[34] = test system: 786-0 renal
[35] = test system: ACHN renal
[36] = test system: RPMI-8226 leukemia
[37] = test system: PC-3 prostate
[38] = test system: EKVX NSCLC
[39] = test system: SF-295 CNS
[40] = test system: HCT-116 colon
[41] = test system: CCRF-CEM leukemia
[42] = test system: OVCAR-4 ovarian
[43] = test system: DU-145 prostate
[44] = test system: NCI-H460 lung
[45] = test system: MCF7 breast
[46] = test system: HOP-62 NSCLC
[47] = test system: NCI/ADR-RES ovarian
[48] = test system: T-47D breast
[49] = test system: IGROV1 ovarian
[50] = test system: HS 578T breast
[51] = test system: HOP-92 NSCLC
[52] = test system: SK-MEL-2 melanoma
[53] = test system: M14 melanoma
[54] = test system: OVCAR-5 ovarian
[55] = test system: SK-OV-3 ovarian
[56] = test system: MDA-MB-231 breast
[57] = test system: CAKI-1 renal
[58] = test system: SN12C renal

Which results are given for `Cc1cc2cc3c(Cl)c(CCCl)c(C)nc3cc2c(Cl)c1CCCl`?
TGI [1]: 39.7 µM; TGI [2]: 35.1 µM; TGI [3]: 94.5 µM; TGI [4]: 57.2 µM; TGI [5]: 34.4 µM; TGI [6]: 26.6 µM; TGI [7]: 27.3 µM; TGI [8]: 17.5 µM; TGI [9]: 76.8 µM; TGI [10]: 50.9 µM; TGI [11]: 36.1 µM; TGI [12]: 48.4 µM; TGI [13]: 46.4 µM; TGI [14]: 44.7 µM; TGI [15]: > 100 µM; TGI [16]: 20.5 µM; TGI [17]: 37.7 µM; TGI [18]: 43.3 µM; TGI [19]: 34.4 µM; TGI [20]: > 100 µM; TGI [21]: 30.8 µM; TGI [22]: 60 µM; TGI [23]: 30.9 µM; TGI [24]: 32.9 µM; TGI [25]: 47.7 µM; TGI [26]: 34.8 µM; TGI [27]: 30 µM; TGI [28]: 85.9 µM; TGI [29]: 29.5 µM; TGI [30]: 63.6 µM; TGI [31]: > 100 µM; TGI [32]: 45.7 µM; TGI [33]: > 100 µM; TGI [34]: 78.6 µM; TGI [35]: 75.5 µM; TGI [36]: 36.5 µM; TGI [37]: 39.6 µM; TGI [38]: 42.3 µM; TGI [39]: 35.2 µM; TGI [40]: 31.8 µM; TGI [41]: 48.9 µM; TGI [42]: 66.3 µM; TGI [43]: 80.3 µM; TGI [44]: 34.2 µM; TGI [45]: 56.7 µM; TGI [46]: 27.8 µM; TGI [47]: 61.8 µM; TGI [48]: 69.8 µM; TGI [49]: > 100 µM; TGI [50]: 30.6 µM; TGI [51]: 35.4 µM

With `Clc1ccc(N2CCN(CCCN3CCN(c4cccc(Cl)c4)CC3)CC2)cc1` as the compound, how does the GI50 [1] read?
The GI50 was 2.65 µM.

And the TGI [1]?
The TGI was 11.7 µM.

What about the GI50 [52] of the same compound?
Its GI50 is 14.3 µM.

What about the TGI [52] of the same compound?
Its TGI is 31.5 µM.

What about the GI50 [2] of the same compound?
The GI50 was 2.53 µM.

And the TGI [2]?
Its TGI is 8.27 µM.

And the GI50 [3]?
The GI50 was 10.4 µM.

What about the TGI [3] of the same compound?
Its TGI is 28.1 µM.

What about the GI50 [4] of the same compound?
The GI50 was 8.57 µM.

What about the TGI [4] of the same compound?
Its TGI is 28.4 µM.

And the GI50 [5]?
Its GI50 is 3.44 µM.

What about the TGI [5] of the same compound?
The TGI was 15.3 µM.

And the GI50 [6]?
Its GI50 is 1.6 µM.

What about the TGI [6] of the same compound?
The TGI was 3.46 µM.

What about the GI50 [7] of the same compound?
Its GI50 is 2.33 µM.

What about the TGI [7] of the same compound?
The TGI was 6.7 µM.

And the GI50 [8]?
Its GI50 is 6.7 µM.

What about the TGI [8] of the same compound?
Its TGI is 22.4 µM.

And the GI50 [9]?
The GI50 was 3.08 µM.

What about the TGI [9] of the same compound?
Its TGI is 14 µM.

And the GI50 [10]?
The GI50 was 3.56 µM.

And the TGI [10]?
Its TGI is 16.2 µM.

And the GI50 [53]?
Its GI50 is 1.57 µM.

What about the TGI [53] of the same compound?
Its TGI is 3.21 µM.

And the GI50 [11]?
The GI50 was 1.62 µM.

And the TGI [11]?
The TGI was 3.35 µM.

What about the GI50 [12] of the same compound?
The GI50 was 4.61 µM.

And the TGI [12]?
Its TGI is 18.8 µM.

And the GI50 [13]?
Its GI50 is 3.45 µM.

What about the TGI [13] of the same compound?
The TGI was 15.6 µM.

And the GI50 [54]?
Its GI50 is 9.12 µM.

What about the TGI [54] of the same compound?
Its TGI is 29.6 µM.

What about the GI50 [55] of the same compound?
Its GI50 is 10.7 µM.

What about the TGI [55] of the same compound?
Its TGI is 23.2 µM.

What about the GI50 [56] of the same compound?
The GI50 was 4.22 µM.

What about the TGI [56] of the same compound?
The TGI was 18.6 µM.

What about the GI50 [57] of the same compound?
Its GI50 is 7.43 µM.

What about the TGI [57] of the same compound?
The TGI was 25.6 µM.

What about the GI50 [14] of the same compound?
The GI50 was 2.01 µM.

And the TGI [14]?
The TGI was 17.4 µM.

And the GI50 [15]?
The GI50 was 4.9 µM.

What about the TGI [15] of the same compound?
Its TGI is 22.4 µM.

And the GI50 [16]?
The GI50 was 6.51 µM.

What about the TGI [16] of the same compound?
Its TGI is 23.3 µM.

And the GI50 [17]?
Its GI50 is 14.7 µM.

And the TGI [17]?
Its TGI is 34 µM.

And the GI50 [18]?
The GI50 was 1.45 µM.

What about the TGI [18] of the same compound?
The TGI was 6.08 µM.

What about the GI50 [19] of the same compound?
Its GI50 is 2.86 µM.

And the TGI [19]?
The TGI was 11.3 µM.

And the GI50 [58]?
The GI50 was 7.51 µM.

What about the TGI [58] of the same compound?
The TGI was 21.6 µM.

What about the GI50 [20] of the same compound?
Its GI50 is 5.32 µM.

And the TGI [20]?
The TGI was 21.3 µM.

And the GI50 [21]?
Its GI50 is 3.36 µM.

What about the TGI [21] of the same compound?
Its TGI is 16.7 µM.

What about the GI50 [22] of the same compound?
Its GI50 is 5.45 µM.

What about the TGI [22] of the same compound?
Its TGI is 20.1 µM.

And the GI50 [23]?
The GI50 was 7.77 µM.

What about the TGI [23] of the same compound?
Its TGI is 21.4 µM.

What about the GI50 [25] of the same compound?
The GI50 was 3.72 µM.

What about the TGI [25] of the same compound?
The TGI was 15.6 µM.

And the GI50 [26]?
The GI50 was 4.33 µM.

What about the TGI [26] of the same compound?
Its TGI is 16.3 µM.

What about the GI50 [27] of the same compound?
Its GI50 is 3.21 µM.

What about the TGI [27] of the same compound?
Its TGI is 12.4 µM.

And the GI50 [28]?
Its GI50 is 11.3 µM.

What about the TGI [28] of the same compound?
Its TGI is 24.7 µM.

What about the GI50 [29] of the same compound?
Its GI50 is 2.8 µM.

And the TGI [29]?
The TGI was 13.8 µM.

And the GI50 [30]?
Its GI50 is 3.33 µM.

What about the TGI [30] of the same compound?
Its TGI is 17.8 µM.

And the GI50 [31]?
The GI50 was 2.52 µM.

What about the TGI [31] of the same compound?
The TGI was 14.8 µM.

What about the GI50 [32] of the same compound?
The GI50 was 2.06 µM.

And the TGI [32]?
The TGI was 6.15 µM.

And the GI50 [33]?
Its GI50 is 3.03 µM.

What about the TGI [33] of the same compound?
The TGI was 13.5 µM.

What about the GI50 [34] of the same compound?
Its GI50 is 4.63 µM.

And the TGI [34]?
Its TGI is 18.5 µM.

What about the GI50 [35] of the same compound?
The GI50 was 7.77 µM.

And the TGI [35]?
Its TGI is 21.5 µM.

What about the GI50 [36] of the same compound?
The GI50 was 1.79 µM.

And the TGI [36]?
Its TGI is 7.84 µM.

And the GI50 [37]?
The GI50 was 3.34 µM.

What about the TGI [37] of the same compound?
The TGI was 16.4 µM.

And the GI50 [38]?
The GI50 was 4.5 µM.

What about the TGI [38] of the same compound?
Its TGI is 35.9 µM.

What about the GI50 [39] of the same compound?
Its GI50 is 3.74 µM.

And the TGI [39]?
The TGI was 19.1 µM.

What about the GI50 [40] of the same compound?
The GI50 was 2.45 µM.

And the TGI [40]?
The TGI was 12.2 µM.

And the GI50 [41]?
The GI50 was 3.8 µM.

And the TGI [41]?
The TGI was 25.3 µM.

What about the GI50 [42] of the same compound?
The GI50 was 5.77 µM.

And the TGI [42]?
Its TGI is 20.7 µM.

What about the GI50 [43] of the same compound?
Its GI50 is 8.14 µM.

What about the TGI [43] of the same compound?
The TGI was 21.4 µM.

And the GI50 [44]?
Its GI50 is 3.78 µM.

And the TGI [44]?
Its TGI is 15.8 µM.

And the GI50 [45]?
The GI50 was 2.92 µM.

What about the TGI [45] of the same compound?
The TGI was 12.2 µM.

What about the GI50 [46] of the same compound?
The GI50 was 3.97 µM.

What about the TGI [46] of the same compound?
The TGI was 18.1 µM.

And the GI50 [47]?
The GI50 was 4.6 µM.

And the TGI [47]?
Its TGI is 20.7 µM.

And the GI50 [48]?
The GI50 was 1.63 µM.

What about the TGI [48] of the same compound?
Its TGI is 14.3 µM.

What about the GI50 [49] of the same compound?
The GI50 was 8.89 µM.

What about the TGI [49] of the same compound?
The TGI was 24.6 µM.

What about the GI50 [50] of the same compound?
Its GI50 is 4.82 µM.

And the TGI [50]?
The TGI was 22 µM.

And the GI50 [51]?
Its GI50 is 0.813 µM.

And the TGI [51]?
The TGI was 11.4 µM.
